Assay: LogP of the perfume ingredients
Format: physicochemical
Conditions: perfume ingredients of Table 1a

Row | logP | Structure (SMILES)
1 | 4.47 | C=CC(C)CCCC(C)(C)OC(C)=O (stereo not shown) [Dihydromyrcenyl acetate]
2 | 4.31 | CC1C(C)(C)C2=C(C(=O)CCC2)C1(C)C (stereo not shown) [Cashmeran®, 1,2,3,5,6,7-Hexahydro-1,2,3,3-pentamethyl-4h-inden-4-one]
3 | 3.47 | C=CC(C)CCCC(C)(C)O (stereo not shown) [Dihydromyrcenol]

Same assay, conditions: perfume ingredients of Table 1a; read-out: LogP

Row | logP | Structure (SMILES)
4 | 4.84 | CC(=O)C(C)=CC1C(C)=CCCC1(C)C (stereo not shown) [Isoraldeine® 70, 3-Methyl-4-(2,6,6-trimethyl-2cyclohexen-1-yl)-3-buten-2-one]
5 | 2.87 | CC(C)[C@@H]1CC[C@@H](C)CC1=O [Menthone]
6 | 3.13 | CC12CCC(CC1)C(C)(C)O2 [Eucalyptol]
7 | 5.18 | CC(C)=CCCC1=CCC(C)(C=O)CC1 (stereo not shown) [Precyclemone B, 1-Methyl-4-(4-methyl-3-pentenyl)cyclohex-3-ene-1-carboxaldehyde]

The remaining lines, values behind:

Row | Structure (SMILES) | logP
8 | CCCCCCCCCC(C)C=O (stereo not shown) [2-Methylundecanal] | 4.67
9 | C=CC(C)(CCC=C(C)C)OC(C)=O (stereo not shown) [Linalyl acetate] | 4.39
10 | CC12CCC(CC1=O)C2(C)C (stereo not shown) [Camphor] | 3.04

Source: patent US9271905B2, “Process for preparing polyurea microcapsules” (Firmenich S.A., priority 2010, dated 2016)
